One may read the pEC50 as the negative decadic logarithm of the EC50, by convention in mol/L. A higher pEC50 goes with a low EC50.

Among the data in patent publication US12351580B2, “NLRP3 modulators” (Innate Tumor Immunity, Inc., priority 2017, dated 2025) are EC50 values, retold here.

pEC50: −log10 of the molar value.

One test addresses T1, TLR8 (Homo sapiens, UniProt Q9NR97).
T1 construct: host or cells: HEK-Blue cells (human HEK) co-expressing TLR8 and an NF-kB/AP1-inducible SEAP reporter
T1 sequence (Q9NR97 27-1041): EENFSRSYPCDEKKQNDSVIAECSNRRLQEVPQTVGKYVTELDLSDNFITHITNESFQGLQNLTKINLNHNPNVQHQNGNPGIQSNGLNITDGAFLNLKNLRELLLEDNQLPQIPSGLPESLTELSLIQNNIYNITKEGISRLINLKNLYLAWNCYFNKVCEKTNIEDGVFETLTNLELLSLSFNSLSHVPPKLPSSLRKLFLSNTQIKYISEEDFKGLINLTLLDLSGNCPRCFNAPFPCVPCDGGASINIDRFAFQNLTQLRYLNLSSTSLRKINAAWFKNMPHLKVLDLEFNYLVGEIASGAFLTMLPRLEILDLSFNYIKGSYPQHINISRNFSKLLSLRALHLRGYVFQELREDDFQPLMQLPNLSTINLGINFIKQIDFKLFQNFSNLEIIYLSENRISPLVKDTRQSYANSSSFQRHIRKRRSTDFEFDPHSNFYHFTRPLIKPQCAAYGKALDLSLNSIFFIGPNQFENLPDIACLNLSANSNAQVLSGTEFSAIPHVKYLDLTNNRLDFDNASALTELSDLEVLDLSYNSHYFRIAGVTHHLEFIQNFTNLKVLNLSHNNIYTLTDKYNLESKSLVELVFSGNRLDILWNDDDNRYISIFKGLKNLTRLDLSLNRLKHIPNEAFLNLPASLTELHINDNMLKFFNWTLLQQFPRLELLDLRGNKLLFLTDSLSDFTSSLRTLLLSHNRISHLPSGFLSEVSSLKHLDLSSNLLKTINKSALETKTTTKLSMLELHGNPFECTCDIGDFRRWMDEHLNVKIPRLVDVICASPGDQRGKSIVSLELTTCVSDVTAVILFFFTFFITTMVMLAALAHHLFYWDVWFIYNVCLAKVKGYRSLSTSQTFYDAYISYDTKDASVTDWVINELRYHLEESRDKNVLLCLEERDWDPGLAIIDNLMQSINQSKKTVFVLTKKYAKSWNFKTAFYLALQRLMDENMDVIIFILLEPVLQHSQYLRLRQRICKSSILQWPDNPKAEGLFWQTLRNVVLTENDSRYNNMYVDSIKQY
Kind of test: In vitro human TLR8 binding reporter assay (HEK-Blue, NF-kB/AP1-inducible SEAP). Type of test: cell-based. The following applies: activity range symbols. The protocol: (§1) In Vitro Human TLR7 and TLR8 Binding Reporter Assays
(§2) Logarithmically-growing human HEK-Blue cells co-expressing a TLR7 or TLR8 gene and a NF-kB/AP1-inducible SEAP (secreted embryonic alkaline phosphatase; Invivogen, San Diego, CA) reporter gene are added to individual wells of a 384-well plate (15,000 cells per 20 μL per well) and maintained for 24 h at 37° C., 5% CO2. Test compounds or DMSO are distributed to separate wells the next day using acoustic liquid handling technology (100 nL per well) and cells are subsequently incubated for 18 h at 37° C., 5% CO2. Cellular SEAP production is measured using an Envision plate reader instrument thirty minutes after adding freshly-made Quanti-Blue reagent (prepared by following manufacturer instructions; Invivogen, San Diego, CA) to the HEK-Blue TLR Nf-kB-SEAP cell reactions. All EC50 values (half-maximal effective concentration) are determined using proprietary data analysis software.

Another test concerns the target T2, TLR7 (Homo sapiens, UniProt Q9NYK1).
T2 construct: host or cells: HEK-Blue cells (human HEK) co-expressing TLR7 and an NF-kB/AP1-inducible SEAP reporter
T2 sequence (Q9NYK1 27-1049): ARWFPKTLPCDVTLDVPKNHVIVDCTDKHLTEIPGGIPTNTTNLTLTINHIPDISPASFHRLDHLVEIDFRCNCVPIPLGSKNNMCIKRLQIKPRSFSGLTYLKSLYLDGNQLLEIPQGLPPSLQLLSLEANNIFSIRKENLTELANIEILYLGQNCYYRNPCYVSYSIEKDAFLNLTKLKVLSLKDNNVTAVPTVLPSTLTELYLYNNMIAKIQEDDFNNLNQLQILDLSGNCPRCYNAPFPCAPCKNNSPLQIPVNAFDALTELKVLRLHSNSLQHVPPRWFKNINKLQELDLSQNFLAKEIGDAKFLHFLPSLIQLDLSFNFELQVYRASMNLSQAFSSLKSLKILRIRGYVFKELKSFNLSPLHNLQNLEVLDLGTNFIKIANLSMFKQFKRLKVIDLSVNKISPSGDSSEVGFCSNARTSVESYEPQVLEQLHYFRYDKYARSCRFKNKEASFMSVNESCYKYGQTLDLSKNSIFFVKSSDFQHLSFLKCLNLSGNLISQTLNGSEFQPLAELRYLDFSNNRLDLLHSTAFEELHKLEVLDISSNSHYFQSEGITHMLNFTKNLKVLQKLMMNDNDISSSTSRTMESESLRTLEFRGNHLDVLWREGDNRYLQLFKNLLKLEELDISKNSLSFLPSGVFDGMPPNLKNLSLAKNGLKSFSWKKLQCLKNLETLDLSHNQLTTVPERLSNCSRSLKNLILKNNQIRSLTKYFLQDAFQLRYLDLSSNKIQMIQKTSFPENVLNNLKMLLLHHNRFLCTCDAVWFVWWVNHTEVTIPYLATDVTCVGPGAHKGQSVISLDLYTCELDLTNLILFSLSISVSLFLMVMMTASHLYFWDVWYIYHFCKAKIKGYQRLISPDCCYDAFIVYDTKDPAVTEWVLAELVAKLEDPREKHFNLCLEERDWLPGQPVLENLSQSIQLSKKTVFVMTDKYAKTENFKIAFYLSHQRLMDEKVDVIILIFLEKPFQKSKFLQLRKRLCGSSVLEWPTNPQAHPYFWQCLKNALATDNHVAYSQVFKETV
Description: In vitro human TLR7 binding reporter assay (HEK-Blue, NF-kB/AP1-inducible SEAP). The following applies: activity range symbols. It counts as cell-based. As for the experimental part:
as §1, §2
(A reporter such as luciferase makes a cellular process visible.)

`CCN(Cc1nc2c(N)nc3ccccc3c2n1CCC(=O)NC)C(C)=O` [Compound 199]: the pEC50 at TLR8 and on TLR7 was less than 4.00 in each case.
